# Key:
# [1] = biological target: T1, PI3K alpha (Homo sapiens, UniProt P42336); test: Enzymatic PI3K alpha isoform inhibition (lipid kinase activity, Kinase-Glo); format: biochemical; conditions: enzymatic assay
# T1 construct: His tag (C); made in house; host or cells: baculovirus; Tn5 (Trichoplusia ni) or TiniPro insect cells
# Experimental: The kinase reaction is performed in a final volume of 50 μl per well of a half area COSTAR, 96 well plate. The final concentrations of ATP and phosphatidyl inositol in the assay are 5 μM and 6 μg/mL, respectively. The reaction is started by the addition of PI3 kinase, e.g. PI3 kinase δ.
# (§1) In a more preferred assay, the kinase reaction is performed in a final volume of 10 μl per well of a low volume non-binding CORNING, 384 well black plate (Cat. No. #3676). The final concentrations of ATP and phosphatidyl inositol (PI) in the assay are 1 μM and 10 μg/mL, respectively. The reaction is started by the addition of ATP.
# (§2) The components of the assay are added per well as follows:
# (§3) 50 nl test compounds in 90% DMSO per well, in columns 1-20, 8 concentrations (1/3 and 1/3.33 serial dilution step) in single. • Low control: 50 nl of 90% DMSO in half the wells of columns 23-24 (0.45% in final). • High control: 50 nl of reference compound (e.g. compound of Example 7 in WO 2006/122806) in the other half of columns 23-24 (2.5 μM in final). • Standard: 50 nl of reference compound as just mentioned diluted as the test compounds in columns 21-22. • 20 mL ‘buffer’ are prepared per assay: • 200 μl of 1M TRIS HCl pH7.5 (10 mM in final) • 60 μl of 1M MgCl2 (3 mM in final) • 500 μl of 2M NaCl (50 mM in final) • 100 μl of 10% CHAPS (0.05% in final) • 200 μl of 100 mM DTT (1 mM in final) • 18.94 mL of nanopure water • 10 mL ‘PI’ are prepared per assay: • 200 μl of 1 mg/mL 1-alpha-Phosphatidylinositol (Liver Bovine, Avanti Polar Lipids Cat. No. 840042C MW=909.12) prepared in 3% OctylGlucoside (10 μg/mL in final) • 9.8 mL of ‘buffer’ • 10 mL ‘ATP’ are prepared per assay: • 6.7 μl of 3 mM stock of ATP giving a final concentration of 1 μM per well • 10 mL of ‘buffer’ • 2.5 mL of each PI3K construct are prepared per assay in ‘PI’ with the following final concentration: • 10 nM PI3K alfa EMV B1075 • 25 nM beta EMV BV949 • 10 nM delta EMV BV1060 • 150 nM gamma EMV BV950 • 5 μl of ‘PI/PI3K’ are added per well. • 5 μl ‘ATP’ are added per well to start the reaction. • The plates are then incubated at room temperature for 60 minutes (alfa, beta, delta) or 120 minutes (gamma). • The reaction is terminated by the addition of 10 μl Kinase-Glo (Promega Cat. No. #6714). • The assay plates are read after 10 minutes in Synergy 2 reader (BioTek, Vermont USA) with an integration time of 100 milliseconds and sensitivity set to 191. • Output: The High control is around 60'000 counts and the Low control is 30'000 or lower • This luminescence assay gives a useful Z′ ratio between 0.4 and 0.7
# (§4) IC50 is determined by a four parameter curve fitting routine that comes along with “excel fit”. A four parameter logistic equation is used to calculate IC50 values (IDBS XLfit) of the percentage inhibition of each compound at 8 concentrations (usually 10, 3.0, 1.0, 0.3, 0.1, 0.030, 0.010 and 0.003 μM). Alternatively, IC50 values are calculated using idbsXLfit model 204, which is a 4 parameter logistic model.
# (§5) Yet alternatively, for an ATP depletion assay, compounds of the formula I to be tested are dissolved in DMSO and directly distributed into a white 384-well plate at 0.5 μl per well. To start the reaction, 10 μl of 10 nM PI3 kinase and 5 μg/mL 1-alpha-phosphatidylinositol (PI) are added into each well followed by 10 μl of 2 μM ATP. The reaction is performed until approx 50% of the ATP is depleted, and then stopped by the addition of 20 μl of Kinase-Glo solution (Promega Corp., Madison, Wis., USA). The stopped reaction is incubated for 5 minutes and the remaining ATP is then detected via luminescence. IC50 values are then determined.
# [2] = biological target: T2, PI3K delta (Homo sapiens, UniProt O00329); test: Enzymatic PI3K delta isoform inhibition (lipid kinase activity, Kinase-Glo); format: biochemical; conditions: enzymatic assay
# T2 construct: for the full-length p110-d subunit are generated and fused by overlapping PCR; His tag (C); made in house; host or cells: baculovirus; Tn5 (Trichoplusia ni) or TiniPro insect cells
# T2 sequence (O00329 with tags, fused parts or gaps limits assumed): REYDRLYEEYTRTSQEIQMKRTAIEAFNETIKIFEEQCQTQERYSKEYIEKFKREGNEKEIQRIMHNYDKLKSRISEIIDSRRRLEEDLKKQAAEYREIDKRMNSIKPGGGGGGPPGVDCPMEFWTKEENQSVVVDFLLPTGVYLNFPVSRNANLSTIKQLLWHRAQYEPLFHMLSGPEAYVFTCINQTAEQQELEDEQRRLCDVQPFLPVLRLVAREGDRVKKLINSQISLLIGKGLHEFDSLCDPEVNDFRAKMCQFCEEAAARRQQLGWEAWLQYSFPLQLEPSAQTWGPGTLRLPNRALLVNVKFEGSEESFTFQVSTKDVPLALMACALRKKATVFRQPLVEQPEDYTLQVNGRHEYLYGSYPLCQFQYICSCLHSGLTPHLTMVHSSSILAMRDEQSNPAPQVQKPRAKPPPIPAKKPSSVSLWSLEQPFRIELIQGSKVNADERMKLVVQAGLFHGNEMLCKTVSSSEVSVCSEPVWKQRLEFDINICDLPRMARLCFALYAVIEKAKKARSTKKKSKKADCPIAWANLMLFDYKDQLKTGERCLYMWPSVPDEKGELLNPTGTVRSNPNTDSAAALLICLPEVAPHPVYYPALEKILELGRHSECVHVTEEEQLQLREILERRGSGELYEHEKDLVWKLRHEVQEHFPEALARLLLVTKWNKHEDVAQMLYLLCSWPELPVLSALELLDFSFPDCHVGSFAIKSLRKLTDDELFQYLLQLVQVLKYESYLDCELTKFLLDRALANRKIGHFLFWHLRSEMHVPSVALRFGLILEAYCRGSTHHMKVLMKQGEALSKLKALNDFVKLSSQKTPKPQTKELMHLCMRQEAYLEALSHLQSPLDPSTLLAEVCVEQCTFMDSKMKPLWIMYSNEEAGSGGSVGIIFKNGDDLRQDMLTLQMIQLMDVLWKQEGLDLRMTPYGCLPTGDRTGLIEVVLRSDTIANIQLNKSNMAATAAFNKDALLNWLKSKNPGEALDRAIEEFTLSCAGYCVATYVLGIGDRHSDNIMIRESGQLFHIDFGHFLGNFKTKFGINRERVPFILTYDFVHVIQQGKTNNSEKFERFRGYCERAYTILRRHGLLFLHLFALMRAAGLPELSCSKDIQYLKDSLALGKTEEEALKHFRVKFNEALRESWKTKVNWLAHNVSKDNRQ
# Experimental: as §1, §2, §3, §4, §5
# T1 sequence (P42336 with tags, fused parts or gaps limits assumed): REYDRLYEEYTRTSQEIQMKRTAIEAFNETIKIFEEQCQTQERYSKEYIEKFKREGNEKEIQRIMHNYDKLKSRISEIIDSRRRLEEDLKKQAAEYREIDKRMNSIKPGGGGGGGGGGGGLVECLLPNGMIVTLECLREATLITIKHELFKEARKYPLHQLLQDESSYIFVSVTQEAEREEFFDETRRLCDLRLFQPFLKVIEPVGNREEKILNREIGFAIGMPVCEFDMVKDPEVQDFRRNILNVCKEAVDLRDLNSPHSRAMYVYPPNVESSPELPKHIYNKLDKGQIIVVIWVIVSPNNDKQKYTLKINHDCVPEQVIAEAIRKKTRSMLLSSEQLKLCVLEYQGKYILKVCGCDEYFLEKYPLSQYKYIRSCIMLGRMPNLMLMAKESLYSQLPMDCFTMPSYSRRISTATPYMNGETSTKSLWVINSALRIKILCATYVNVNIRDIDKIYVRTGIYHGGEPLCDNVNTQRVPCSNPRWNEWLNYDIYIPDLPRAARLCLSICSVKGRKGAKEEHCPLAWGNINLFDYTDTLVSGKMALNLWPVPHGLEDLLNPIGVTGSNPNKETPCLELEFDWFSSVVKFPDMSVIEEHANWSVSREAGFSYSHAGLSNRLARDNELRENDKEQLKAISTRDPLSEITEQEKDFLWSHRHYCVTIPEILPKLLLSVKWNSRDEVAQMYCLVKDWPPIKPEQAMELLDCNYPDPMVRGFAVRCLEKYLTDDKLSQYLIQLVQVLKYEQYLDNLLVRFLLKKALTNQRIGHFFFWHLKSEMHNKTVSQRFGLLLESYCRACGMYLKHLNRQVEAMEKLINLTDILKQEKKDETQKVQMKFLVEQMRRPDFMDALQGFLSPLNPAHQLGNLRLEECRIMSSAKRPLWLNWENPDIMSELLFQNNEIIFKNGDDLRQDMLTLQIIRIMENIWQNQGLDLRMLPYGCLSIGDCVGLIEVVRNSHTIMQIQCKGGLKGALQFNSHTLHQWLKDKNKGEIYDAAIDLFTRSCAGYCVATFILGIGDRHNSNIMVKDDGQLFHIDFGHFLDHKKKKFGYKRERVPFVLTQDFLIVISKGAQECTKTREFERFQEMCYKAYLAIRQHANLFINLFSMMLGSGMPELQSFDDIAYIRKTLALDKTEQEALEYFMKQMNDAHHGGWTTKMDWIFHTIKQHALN
structure (smiles),measurement,setting,value
"COc1ncc(-c2ccnc3ccc(O[C@H]4CCN(C(=O)C5CCOCC5)C4)c(C)c23)cc1C#N [Example B8, 2-Methoxy-5-{5-methyl-6-[(S)-1-(tetrahydro-pyran-4-carbonyl)-pyrrolidin-3-yloxy]-quinolin-4-yl}-nicotinonitrile]",IC50,[1],1440 nM
same,IC50,[2],60 nM

# Reference: US20150148377A1, “Quinoline Derivatives” (NOVARTIS AG, priority 2011, published 2015)
